By Ki is commonly meant a measure of affinity in units of concentration, obtained from inhibition or displacement.

One assay concerns the target SYK (Homo sapiens, UniProt P43405). The assay can be described thus: SYK inhibition assay (standard coupled enzyme assay). In kind it is biochemical. The procedure:
Reactions were carried out in 100 mM HEPES (pH 7.5), 10 mM MgCl2, 25 mM NaCl, 1 mM DTT and 1.5% DMSO. Final substrate concentrations in the assay were 200 μM ATP (Sigma chemical Co.) and 4 μM poly Gly-Tyr peptide (Sigma Chemical Co.). Assays were carried out at 30° C. and 200 nM SYK. Final concentrations of the components of the coupled enzyme system were 2.5 mM phosphoenolpyruvate, 300 μM NADH, 30 μg/ml pyruvate kinase and 10 μg/ml lactate dehydrogenase.
An assay stock buffer solution was prepared containing all of the reagents listed above, with the exception of SYK, DTT, and the test compound of interest of the present invention. 56 μl of the test reaction was placed in a 96 well plate followed by the addition of 1 μl of 2 mM DMSO stock containing the test compound of the present invnetion (final compound concentration 30 μM).

The target of a further assay is T1, ZAP-70 (Homo sapiens, UniProt P43403).
T1 sequence (P43403 1-619): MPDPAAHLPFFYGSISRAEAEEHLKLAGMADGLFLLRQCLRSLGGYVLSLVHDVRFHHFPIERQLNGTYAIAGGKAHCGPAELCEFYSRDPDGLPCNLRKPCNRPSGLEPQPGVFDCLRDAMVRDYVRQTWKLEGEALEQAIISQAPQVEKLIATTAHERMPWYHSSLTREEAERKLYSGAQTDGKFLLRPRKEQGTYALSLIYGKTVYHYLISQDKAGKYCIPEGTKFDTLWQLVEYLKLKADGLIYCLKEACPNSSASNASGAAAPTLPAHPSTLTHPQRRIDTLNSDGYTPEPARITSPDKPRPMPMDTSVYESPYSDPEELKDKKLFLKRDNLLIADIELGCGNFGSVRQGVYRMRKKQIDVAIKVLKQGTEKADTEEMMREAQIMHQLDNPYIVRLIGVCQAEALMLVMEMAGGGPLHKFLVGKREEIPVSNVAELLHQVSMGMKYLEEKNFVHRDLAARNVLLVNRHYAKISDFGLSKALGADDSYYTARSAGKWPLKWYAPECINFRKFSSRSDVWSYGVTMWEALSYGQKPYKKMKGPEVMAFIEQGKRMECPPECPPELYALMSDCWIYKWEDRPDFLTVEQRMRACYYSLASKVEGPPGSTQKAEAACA
The assay can be described thus: ZAP-70 inhibition assay (standard coupled enzyme assay). In kind it is biochemical. The note with it: 100 μM ATP, 20 μM poly-4EY peptide, 30° C., 60 nM ZAP-70. The protocol:
Compounds were screened for their ability to inhibit ZAP-70 using a standard coupled enzyme assay (Fox et al., Protein Sci. 1998, 7, 2249). Assays were carried out in a mixture of 100 mM HEPES (pH 7.5), 10 mM MgCl2, 25 mM NaCl, 2 mM DTT and 3% DMSO. Final substrate concentrations in the assay were 100 μM ATP (Sigma Chemicals) and 20 μM peptide (poly-4EY, Sigma Chemicals). Assays were carried out at 30° C. and 60 nM ZAP-70. Final concentrations of the components of the coupled enzyme system were 2.5 mM phosphoenolpyruvate, 300 μM NADH, 30 μg/ml pyruvate kinase and 10 μg/ml lactate dehydrogenase.
An assay stock buffer solution was prepared containing all of the reagents listed above, with the exception of ZAP-70 and the test compound of interest of the present invention. 55 μl of the stock solution was placed in a 96 well plate followed by addition of 2 μl of DMSO stock containing serial dilutions of the test compound of the present invention (typically starting from a final concentration of 15 μM). The plate was preincubated for 10 minutes at 30° C. and the reaction initiated by addition of 10 μl of enzyme (final concentration 60 nM). Initial reaction rates were determined with a Molecular Devices SpectraMax Plus plate reader over a 15 minute time course. Ki data was calculated from non-linear regression analysis using the Prism software package (GraphPad Prism version 3.0a for Macintosh, GraphPad Software, San Diego Calif., USA).

The mark [1] stands for this setting: coupled enzyme assay, 200 μM ATP, 4 μM poly Gly-Tyr peptide, 30° C., read-out: Ki (SYK).

Structures are written as SMILES. Read-outs that look alike come from different tables or passages of the source.

As to `Cc1cnc(-c2ccnc(Nc3ccc4[nH]c(C(F)(F)F)nc4c3)n2)s1` [Example I-1], the inhibitory constant (Ki) at SYK (setting [1]) and on ZAP-70 was at most 5 µM throughout.
Regarding `COc1ccc(Nc2nccc(-c3ncc(C)s3)n2)cc1OC` [Example I-2], the Ki on SYK (setting [1]) and on ZAP-70 was at most 5 µM in each case.
Regarding `Cc1cnc(-c2ccnc(Nc3ccc4c(c3)OCCCO4)n2)s1` [Example I-4], the Ki on SYK (setting [1]) and on ZAP-70 was at most 5 µM throughout.
On to `COc1ccc(Nc2nccc(-c3ncc(C)s3)n2)cc1F` [Example I-5], for which the Ki at SYK (setting [1]) and at ZAP-70 was at most 5 µM in each case.
Turning to `Cc1cnc(-c2ccnc(Nc3cccc(S(=O)(=O)c4cccc(N)c4)c3)n2)s1` [Example I-6], the inhibition constant (Ki) on SYK (setting [1]) and at ZAP-70 was at most 5 µM throughout.
Turning to `Cc1cnc(-c2ccnc(Nc3ccc(N4CCN(Cc5ccccc5)CC4)cc3)n2)s1` [Example I-7], the Ki at SYK (setting [1]) and at ZAP-70 was at most 5 µM each time.
In the case of `Cc1cnc(-c2ccnc(Nc3ccc(C)c(Br)c3)n2)s1` [Example I-8], the Ki on SYK (setting [1]) and on ZAP-70 was at most 5 µM throughout.
Regarding `Cc1cnc(-c2ccnc(Nc3ccc4cn[nH]c4c3)n2)s1` [Example I-9], the Ki on SYK (setting [1]) and at ZAP-70 was at most 5 µM in each case.
For `CCN(CC)Cc1cc(Nc2nccc(-c3ncc(C)s3)n2)ccc1O` [Example I-10], the Ki on SYK (setting [1]) and at ZAP-70 was at most 5 µM in each case.
With `Cc1cnc(-c2ccnc(Nc3ccc(Nc4ccccc4)cc3)n2)s1` [Example I-12], the Ki at SYK (setting [1]) and on ZAP-70 was at most 5 µM each time.
Turning to `CCOc1ccc(Nc2nccc(-c3ncc(C)s3)n2)cc1` [Example I-14], the Ki at SYK (setting [1]) and on ZAP-70 was at most 5 µM in each case.
Take `Cc1cnc(-c2ccnc(Nc3cccc(C(N)=O)c3)n2)s1` [Example I-15]: the Ki on SYK (setting [1]) and on ZAP-70 was at most 5 µM throughout.
With `COc1ccc(Nc2nccc(-c3ncc(C)s3)n2)cc1-c1ccccc1` [Example I-16], the inhibition constant (Ki) on SYK (setting [1]) and on ZAP-70 was at most 5 µM throughout.
`COc1ccc(Nc2nccc(-c3ncc(C)s3)n2)cc1O` [Example I-17]: the Ki at SYK (setting [1]) and on ZAP-70 was at most 5 µM in each case.
For `Cc1cc2cc(Nc3nccc(-c4ncc(C)s4)n3)ccc2[nH]1` [Example I-18], the inhibitory constant (Ki) on SYK (setting [1]) and on ZAP-70 was at most 5 µM throughout.
`COc1cc(Nc2nccc(-c3ncc(C)s3)n2)ccc1-c1ccccc1` [Example I-19]: the Ki at SYK (setting [1]) and on ZAP-70 was at most 5 µM each time.
For the molecule `Cc1cnc(-c2ccnc(Nc3ccc4c(c3)CCN4S(C)(=O)=O)n2)s1` [Example I-20], the inhibition constant (Ki) on SYK (setting [1]) and at ZAP-70 was at most 5 µM each time.
As to `COCc1cc(=O)oc2cc(Nc3nccc(-c4ncc(C)s4)n3)ccc12` [Example I-22], the inhibition constant Ki on SYK (setting [1]) and at ZAP-70 was at most 5 µM throughout.
`Cc1cnc(-c2ccnc(Nc3ccc(-n4cncn4)cc3)n2)s1` [Example I-23]: the inhibitory constant (Ki) at SYK (setting [1]) and on ZAP-70 was at most 5 µM in each case.
`CCn1c2ccccc2c2cc(Nc3nccc(-c4ncc(C)s4)n3)ccc21` [Example I-26]: the Ki at SYK (setting [1]) and at ZAP-70 was at most 5 µM in each case.
In the case of `COc1cccc(Nc2nccc(-c3ncc(C)s3)n2)c1` [Example I-27], the Ki on SYK (setting [1]) and on ZAP-70 was at most 5 µM throughout.
`COc1ccc(Nc2nccc(-c3ncc(C)s3)n2)cc1` [Example I-28]: the Ki on SYK (setting [1]) and at ZAP-70 was at most 5 µM throughout.
As for `Cc1cnc(-c2ccnc(Nc3ccc(Cl)c(C)c3)n2)s1` [Example I-29], the Ki at SYK (setting [1]) and on ZAP-70 was at most 5 µM throughout.
In the case of `CC(=O)c1cccc(Nc2nccc(-c3ncc(C)s3)n2)c1` [Example I-30], the Ki at SYK (setting [1]) and at ZAP-70 was at most 5 µM in each case.
In the case of `Cc1cnc(-c2ccnc(Nc3ccc4[nH]ccc4c3)n2)s1` [Example I-31], the inhibition constant (Ki) at SYK (setting [1]) and at ZAP-70 was at most 5 µM in each case.
`Cc1cnc(-c2ccnc(Nc3cccc(N)c3)n2)s1` [Example I-32]: the Ki on SYK (setting [1]) and on ZAP-70 was at most 5 µM each time.
For `CCOP(=O)(Cc1ccc(Nc2nccc(-c3ncc(C)s3)n2)cc1)OCC` [Example I-33], the Ki on SYK was at most 5 µM.
In the case of `Cc1cnc(-c2ccnc(Nc3ccc4c(C)cc(=O)oc4c3)n2)s1` [Example I-34], the Ki on SYK (setting [1]) and at ZAP-70 was at most 5 µM throughout.
For the molecule `CC(=O)Nc1ccc(Nc2nccc(-c3ncc(C)s3)n2)cc1C` [Example I-35], the Ki at SYK (setting [1]) and on ZAP-70 was at most 5 µM each time.
For `Cc1cnc(-c2ccnc(Nc3ccc4c(c3)CC(=O)N4)n2)s1` [Example I-36], the Ki at SYK (setting [1]) and on ZAP-70 was at most 5 µM each time.
`Cc1cnc(-c2ccnc(Nc3cccc(OCc4ccccc4)c3)n2)s1` [Example I-37]: the Ki on SYK (setting [1]) and at ZAP-70 was at most 5 µM throughout.
In the case of `Cc1cnc(-c2ccnc(Nc3cccc(CC#N)c3)n2)s1` [Example I-38], the Ki at SYK (setting [1]) and on ZAP-70 was at most 5 µM each time.
For the molecule `Cc1cc(C)cc(Nc2nccc(-c3ncc(C)s3)n2)c1` [Example I-41], the Ki at SYK and at ZAP-70 was at most 5 µM each time.
With `Cc1cc(C)cc(Nc2nccc(-c3nc(Br)cs3)n2)c1` [Example I-42], the Ki at SYK (setting [1]) and at ZAP-70 was at most 5 µM in each case.
Regarding `Cc1cc(C)cc(Nc2nccc(-c3ncc(CO)s3)n2)c1` [Example I-43], the inhibition constant Ki on SYK and at ZAP-70 was at most 5 µM in each case.
In the case of `Cc1cc(C)cc(Nc2nccc(-c3ncc(CN(C)C)s3)n2)c1` [Example I-44], the inhibition constant Ki on SYK (setting [1]) and on ZAP-70 was at most 5 µM each time.
For `CCN(CC)CCCNCc1cnc(-c2ccnc(Nc3cc(C)cc(C)c3)n2)s1` [Example I-45], the Ki at SYK (setting [1]) and at ZAP-70 was at most 5 µM each time.
Take `Cc1cc(C)cc(Nc2nccc(-c3ncc(CN4CCCCC4)s3)n2)c1` [Example I-46]: the Ki on SYK (setting [1]) and on ZAP-70 was at most 5 µM each time.
Consider `CCN1CCN(Cc2cnc(-c3ccnc(Nc4cc(C)cc(C)c4)n3)s2)CC1` [Example I-47], for which the inhibition constant Ki on SYK (setting [1]) and on ZAP-70 was at most 5 µM in each case.
Take `Cc1cc(C)cc(Nc2nccc(-c3ncc(CN4CCOCC4)s3)n2)c1` [Example I-48]: the inhibition constant Ki at SYK (setting [1]) and on ZAP-70 was at most 5 µM in each case.
As to `Cc1cnc(-c2ccnc(Nc3ccccc3)n2)s1` [Example I-49], the inhibition constant (Ki) on SYK (setting [1]) and at ZAP-70 was at most 5 µM each time.
For `Cc1cnc(-c2ccnc(Nc3ccc4c(c3)CCC4)n2)s1` [Example I-50], the Ki at SYK (setting [1]) and on ZAP-70 was at most 5 µM in each case.
Turning to `Cc1cnc(-c2ccnc(Nc3cc(Cl)cc(Cl)c3)n2)s1` [Example I-51], the inhibition constant (Ki) at SYK (setting [1]) and on ZAP-70 was at most 5 µM throughout.
Turning to `Cc1cc(C)cc(Nc2nccc(-c3nc(CN4CCC(O)C4)cs3)n2)c1` (centres unmarked) [Example I-58], the Ki at SYK (setting [1]) is at most 5 µM.
In the case of `Cc1cc(C)cc(Nc2nccc(-c3nc4ccccc4s3)n2)c1` [Example I-63], the inhibition constant Ki at SYK (setting [1]) and at ZAP-70 was at most 5 µM throughout.
As for `Cc1cc(C)cc(Nc2nccc(-c3nc(CNCC(=O)OC(C)(C)C)cs3)n2)c1` [Example I-67], at SYK (setting [1]), the inhibition constant (Ki) was at most 5 µM.
Consider `Cc1cnc(-c2ccnc(Nc3ccc4c(c3)C(=O)OC4)n2)s1` [Example I-126], for which, on SYK (setting [1]), the inhibitory constant (Ki) is at most 5 µM.
For `Cc1cc(Nc2nccc(-c3ncc(C)s3)n2)[nH]n1` [Example I-151], the Ki on SYK (setting [1]) was at most 5 µM.
In the case of `CC(=O)Nc1ccc(Nc2nccc(-c3ncc(C)s3)n2)cc1` [Example I-157], the Ki at SYK (setting [1]) was at most 5 µM.
